Experimental data as given in patent US11980596B2 (priority 2017, dated 2024).

Test system: patients with treatment-resistant depression (TRD)
Experiment: Adverse events (Example 7)
Type: in vivo, human
Conditions: for Dissociation, number of participants / Dissociative disorder, % of participants / Dissociative disorder, number of participants / Dizziness, % of participants / Dizziness, number of participants / Dysgeusia, % of participants / Dysgeusia, number of participants / Feeling abnormal, % of participants / Feeling abnormal, number of participants / Headache, % of participants / Headache, number of participants / Hypersomnia, % of participants / Hypersomnia, number of participants / Hypertension, number of participants / Hypoesthesia oral, % of participants / Hypoesthesia oral, number of participants / Insomnia, number of participants / Nasal discomfort, number of participants / Nausea, % of participants / Nausea, number of participants / Oropharyngeal pain, number of participants / Polyuria, number of participants / Sedation, % of participants / Sedation, number of participants / Throat irritation, % of participants / Throat irritation, number of participants / Total with events, % of participants / Total with events, number of participants / Tunnel vision, number of participants / Vertigo, % of participants / Vertigo, number of participants / Vision blurred, number of participants / Dissociation, % of participants / Hypertension, % of participants / Insomnia, % of participants / Nasal discomfort, % of participants / Oropharyngeal pain, % of participants / Polyuria, % of participants / Tunnel vision, % of participants / Vision blurred, % of participants: double-blind
Procedure: Adverse events were monitored throughout the study. Other safety assessments (i.e., laboratory tests, vital signs, physical examination) were performed at pre-specified time points. Vital signs, the Clinician Administered Dissociative States Scale (CADSS; Bremner, “Measurement of dissociative states with the clinician-administered dissociative states scale (CADSS)”, J. Traumatic Stress, 1998, 11(1):125-136), and the 4-item positive symptom subscale from the Brief Psychiatric Rating Scale (BPRS; Overall, “The Brief Psychiatric Rating Scale. Psychological Reports”, 1962, 10:799-812) were assessed pre-dose, at 40 minutes, and 2 hours post-dose.
Safety data were analyzed in Period 1, Period 2, double-blind, and open-label data sets, for all subjects receiving at least 1 dose of study medication.

CN[C@]1(c2ccccc2Cl)CCCCC1=O [esketamine, (S)-2-(2-chlorophenyl)-2-(methylamino)cyclohexanone]
3: Dysgeusia, number of participants (esketamine 56 mg, N = 20) | Headache, number of participants (esketamine 56 mg, N = 20) | Headache, number of participants (esketamine 84 mg, N = 17) | Hypertension, number of participants (esketamine Total, N = 56) | Nasal discomfort, number of participants (esketamine Total, N = 56) | Oropharyngeal pain, number of participants (esketamine Total, N = 56) | Throat irritation, number of participants (esketamine Total, N = 56)
(6) %: Feeling abnormal, % of participants (esketamine 84 mg, N = 17) | Hypertension, % of participants (esketamine 84 mg, N = 17) | Nasal discomfort, % of participants (esketamine 84 mg, N = 17) | Sedation, % of participants (esketamine 84 mg, N = 17) | Vertigo, % of participants (esketamine 84 mg, N = 17)
(11) %: Dissociative disorder, % of participants (esketamine 28 mg, N = 19) | Dysgeusia, % of participants (esketamine 28 mg, N = 19) | Feeling abnormal, % of participants (esketamine 28 mg, N = 19) | Hypersomnia, % of participants (esketamine 28 mg, N = 19) | Nausea, % of participants (esketamine 28 mg, N = 19) | Vertigo, % of participants (esketamine 28 mg, N = 19)
(21) %: Dizziness, % of participants (esketamine 28 mg, N = 19) | Headache, % of participants (esketamine Total, N = 56)
(24) %: Dissociation, % of participants (esketamine 84 mg, N = 17) | Dissociative disorder, % of participants (esketamine 84 mg, N = 17) | Nausea, % of participants (esketamine 84 mg, N = 17)
(15) %: Dysgeusia, % of participants (esketamine 56 mg, N = 20) | Headache, % of participants (esketamine 56 mg, N = 20)
(18) %: Headache, % of participants (esketamine 84 mg, N = 17) | Dysgeusia, % of participants (esketamine Total, N = 56) | Nausea, % of participants (esketamine Total, N = 56)
(58) %: Total with events, % of participants (esketamine 28 mg, N = 19)
6: Headache, number of participants (esketamine 28 mg, N = 19)
1: Hypoesthesia oral, number of participants (esketamine 28 mg, N = 19) | Sedation, number of participants (esketamine 28 mg, N = 19) | Throat irritation, number of participants (esketamine 28 mg, N = 19) | Dissociative disorder, number of participants (esketamine 56 mg, N = 20) | Feeling abnormal, number of participants (esketamine 56 mg, N = 20) | Oropharyngeal pain, number of participants (esketamine 56 mg, N = 20) | Vertigo, number of participants (esketamine 56 mg, N = 20) | Feeling abnormal, number of participants (esketamine 84 mg, N = 17) | Hypertension, number of participants (esketamine 84 mg, N = 17) | Nasal discomfort, number of participants (esketamine 84 mg, N = 17) | Sedation, number of participants (esketamine 84 mg, N = 17) | Vertigo, number of participants (esketamine 84 mg, N = 17)
(88) %: Total with events, % of participants (esketamine 84 mg, N = 17)
38.6%: Adverse event: dizziness (open-label phase)
11: Total with events, number of participants (esketamine 28 mg, N = 19) | Dissociation, number of participants (esketamine Total, N = 56)
(47) %: Dizziness, % of participants (esketamine 84 mg, N = 17)
(29) %: Dysgeusia, % of participants (esketamine 84 mg, N = 17)
8: Dizziness, number of participants (esketamine 56 mg, N = 20) | Dizziness, number of participants (esketamine 84 mg, N = 17)
15: Total with events, number of participants (esketamine 84 mg, N = 17)
(4) %: Hypersomnia, % of participants (esketamine Total, N = 56) | Insomnia, % of participants (esketamine Total, N = 56) | Polyuria, % of participants (esketamine Total, N = 56) | Tunnel vision, % of participants (esketamine Total, N = 56) | Vision blurred, % of participants (esketamine Total, N = 56)
(20) %: Hypoesthesia oral, % of participants (esketamine 56 mg, N = 20) | Nausea, % of participants (esketamine 56 mg, N = 20) | Dissociation, % of participants (esketamine Total, N = 56)
2: Dissociative disorder, number of participants (esketamine 28 mg, N = 19) | Dysgeusia, number of participants (esketamine 28 mg, N = 19) | Feeling abnormal, number of participants (esketamine 28 mg, N = 19) | Hypersomnia, number of participants (esketamine 28 mg, N = 19) | Nausea, number of participants (esketamine 28 mg, N = 19) | Vertigo, number of participants (esketamine 28 mg, N = 19) | Hypertension, number of participants (esketamine 56 mg, N = 20) | Insomnia, number of participants (esketamine 56 mg, N = 20) | Nasal discomfort, number of participants (esketamine 56 mg, N = 20) | Polyuria, number of participants (esketamine 56 mg, N = 20) | Sedation, number of participants (esketamine 56 mg, N = 20) | Hypoesthesia oral, number of participants (esketamine 84 mg, N = 17) | Oropharyngeal pain, number of participants (esketamine 84 mg, N = 17) | Throat irritation, number of participants (esketamine 84 mg, N = 17) | Tunnel vision, number of participants (esketamine 84 mg, N = 17) | Vision blurred, number of participants (esketamine 84 mg, N = 17) | Hypersomnia, number of participants (esketamine Total, N = 56) | Insomnia, number of participants (esketamine Total, N = 56) | Polyuria, number of participants (esketamine Total, N = 56) | Tunnel vision, number of participants (esketamine Total, N = 56) | Vision blurred, number of participants (esketamine Total, N = 56)
(7) %: Feeling abnormal, % of participants (esketamine Total, N = 56) | Sedation, % of participants (esketamine Total, N = 56) | Vertigo, % of participants (esketamine Total, N = 56)
(80) %: Total with events, % of participants (esketamine 56 mg, N = 20)
20: Dizziness, number of participants (esketamine Total, N = 56)
14.0%: Adverse event: headache (open-label phase)
22.8%: Adverse event: dysgeusia (open-label phase)
0: Dissociation, number of participants (esketamine 28 mg, N = 19) | Hypertension, number of participants (esketamine 28 mg, N = 19) | Insomnia, number of participants (esketamine 28 mg, N = 19) | Nasal discomfort, number of participants (esketamine 28 mg, N = 19) | Oropharyngeal pain, number of participants (esketamine 28 mg, N = 19) | Polyuria, number of participants (esketamine 28 mg, N = 19) | Tunnel vision, number of participants (esketamine 28 mg, N = 19) | Vision blurred, number of participants (esketamine 28 mg, N = 19) | Hypersomnia, number of participants (esketamine 56 mg, N = 20) | Throat irritation, number of participants (esketamine 56 mg, N = 20) | Tunnel vision, number of participants (esketamine 56 mg, N = 20) | Vision blurred, number of participants (esketamine 56 mg, N = 20) | Hypersomnia, number of participants (esketamine 84 mg, N = 17) | Insomnia, number of participants (esketamine 84 mg, N = 17) | Polyuria, number of participants (esketamine 84 mg, N = 17)
(12) %: Hypoesthesia oral, % of participants (esketamine 84 mg, N = 17) | Oropharyngeal pain, % of participants (esketamine 84 mg, N = 17) | Throat irritation, % of participants (esketamine 84 mg, N = 17) | Tunnel vision, % of participants (esketamine 84 mg, N = 17) | Vision blurred, % of participants (esketamine 84 mg, N = 17)
(13) %: Dissociative disorder, % of participants (esketamine Total, N = 56) | Hypoesthesia oral, % of participants (esketamine Total, N = 56)
15.8%: Adverse event: nausea (open-label phase)
42: Total with events, number of participants (esketamine Total, N = 56)
7: Dissociation, number of participants (esketamine 56 mg, N = 20) | Dissociative disorder, number of participants (esketamine Total, N = 56) | Hypoesthesia oral, number of participants (esketamine Total, N = 56)
(40) %: Dizziness, % of participants (esketamine 56 mg, N = 20)
(75) %: Total with events, % of participants (esketamine Total, N = 56)
(5) %: Hypoesthesia oral, % of participants (esketamine 28 mg, N = 19) | Sedation, % of participants (esketamine 28 mg, N = 19) | Throat irritation, % of participants (esketamine 28 mg, N = 19) | Dissociative disorder, % of participants (esketamine 56 mg, N = 20) | Feeling abnormal, % of participants (esketamine 56 mg, N = 20) | Oropharyngeal pain, % of participants (esketamine 56 mg, N = 20) | Vertigo, % of participants (esketamine 56 mg, N = 20) | Hypertension, % of participants (esketamine Total, N = 56) | Nasal discomfort, % of participants (esketamine Total, N = 56) | Oropharyngeal pain, % of participants (esketamine Total, N = 56) | Throat irritation, % of participants (esketamine Total, N = 56)
5: Dysgeusia, number of participants (esketamine 84 mg, N = 17)
10: Dysgeusia, number of participants (esketamine Total, N = 56) | Nausea, number of participants (esketamine Total, N = 56)
12: Headache, number of participants (esketamine Total, N = 56)
4: Dizziness, number of participants (esketamine 28 mg, N = 19) | Hypoesthesia oral, number of participants (esketamine 56 mg, N = 20) | Nausea, number of participants (esketamine 56 mg, N = 20) | Dissociation, number of participants (esketamine 84 mg, N = 17) | Dissociative disorder, number of participants (esketamine 84 mg, N = 17) | Nausea, number of participants (esketamine 84 mg, N = 17) | Feeling abnormal, number of participants (esketamine Total, N = 56) | Sedation, number of participants (esketamine Total, N = 56) | Vertigo, number of participants (esketamine Total, N = 56)
(10) %: Hypertension, % of participants (esketamine 56 mg, N = 20) | Insomnia, % of participants (esketamine 56 mg, N = 20) | Nasal discomfort, % of participants (esketamine 56 mg, N = 20) | Polyuria, % of participants (esketamine 56 mg, N = 20) | Sedation, % of participants (esketamine 56 mg, N = 20)
10.5%: Adverse event: sedation (open-label phase)
(36) %: Dizziness, % of participants (esketamine Total, N = 56)
16: Total with events, number of participants (esketamine 56 mg, N = 20)
(35) %: Dissociation, % of participants (esketamine 56 mg, N = 20)
(32) %: Headache, % of participants (esketamine 28 mg, N = 19)
